Assay results reported in patent US20210269451A1, “PYRIDINYL HETEROCYCLYL COMPOUNDS FOR THE TREATMENT OF AUTOIMMUNE DISEASE” (Hoffmann-La Roche Inc., priority 2018, published 2021).

Columns and labels:
hTLR9 = target: T1, hTLR9 (Homo sapiens, UniProt Q9NR96); experiment: HEK293-Blue-hTLR-9 cells assay; type: cell-based; set-up: host or cells: HEK293-Blue-hTLR-9 (HEK293); conditions: HEK293-Blue-hTLR9 cells, ODN2006 stimulation, 20 hrs, SEAP reporter; read-out: HEK/hTLR9 IC50
T1 sequence (Q9NR96 26-1032): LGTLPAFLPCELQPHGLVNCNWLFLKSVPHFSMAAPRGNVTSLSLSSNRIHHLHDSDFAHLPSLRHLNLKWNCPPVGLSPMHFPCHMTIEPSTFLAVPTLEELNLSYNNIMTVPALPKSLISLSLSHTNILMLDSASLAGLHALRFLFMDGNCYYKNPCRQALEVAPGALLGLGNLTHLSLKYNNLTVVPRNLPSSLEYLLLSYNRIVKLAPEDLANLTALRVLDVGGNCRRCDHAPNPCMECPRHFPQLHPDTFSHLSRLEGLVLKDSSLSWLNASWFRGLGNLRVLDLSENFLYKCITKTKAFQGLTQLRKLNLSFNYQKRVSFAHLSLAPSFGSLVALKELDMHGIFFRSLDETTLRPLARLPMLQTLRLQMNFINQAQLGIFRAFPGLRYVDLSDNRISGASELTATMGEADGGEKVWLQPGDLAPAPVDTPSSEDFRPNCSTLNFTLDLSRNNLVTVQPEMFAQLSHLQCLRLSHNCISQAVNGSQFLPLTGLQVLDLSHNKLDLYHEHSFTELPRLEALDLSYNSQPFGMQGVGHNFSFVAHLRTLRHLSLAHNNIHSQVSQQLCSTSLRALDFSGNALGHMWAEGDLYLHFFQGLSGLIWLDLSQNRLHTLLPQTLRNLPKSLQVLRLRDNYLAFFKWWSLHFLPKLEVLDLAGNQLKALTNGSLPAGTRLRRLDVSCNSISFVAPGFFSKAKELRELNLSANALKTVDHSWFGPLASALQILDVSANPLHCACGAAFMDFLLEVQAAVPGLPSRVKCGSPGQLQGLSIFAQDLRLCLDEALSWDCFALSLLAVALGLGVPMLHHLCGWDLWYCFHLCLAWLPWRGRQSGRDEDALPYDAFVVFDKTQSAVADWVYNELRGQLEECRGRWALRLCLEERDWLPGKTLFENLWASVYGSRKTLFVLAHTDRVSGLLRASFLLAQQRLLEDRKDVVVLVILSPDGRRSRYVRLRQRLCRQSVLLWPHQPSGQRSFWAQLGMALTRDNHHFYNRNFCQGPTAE
Protocol: The following tests were carried out in order to determine the activity of the compounds of formula (I) and (Ia) in HEK293-Blue-hTLR-7/8/9 cells assay.
HEK293-Blue-hTLR-9 cells assay:
A stable HEK293-Blue-hTLR-9 cell line was purchased from InvivoGen (Cat. #: hkb-htlr9, San Diego, Calif., USA). These cells were originally designed for studying the stimulation of human TLR9 by monitoring the activation of NE-KB. A SEAP (secreted embryonic alkaline phosphatase) reporter gene was placed under the control of the IFN-β minimal promoter fused to five NE-κB and AP-1-binding sites. The SEAP was induced by activating NE-κB and AP-1 via stimulating HEK-Blue hTLR9 cells with TLR9 ligands. Therefore the reporter expression was declined by TLR9 antagonist under the stimulation of a ligand, such as ODN2006 (Cat. #: tlrl-2006-1, Invivogen, San Diego, Calif., USA), for incubation of 20 hrs. The cell culture supernatant SEAP reporter activity was determined using QUANTI-Blue™ kit (Cat. #: rep-qb1, Invivogen, San Diego, Calif., USA) at a wavelength of 640 nm, a detection medium that turns purple or blue in the presence of alkaline phosphatase.
HEK293-Blue-hTLR9 cells were incubated at a density of 250,000˜450,000 cells/mL in a volume of 170 μL in a 96-well plate in Dulbecco's Modified Eagle's medium (DMEM) containing 4.5 g/L glucose, 50 U/mL penicillin, […], […], 2 mM L-glutamine, 10% (v/v) heat-inactivated fetal bovine serum with addition of 20 μL test compound in a serial dilution in the presence of final DMSO at 1% and 10 μL of 20 uM ODN2006 in above DMEM, perform incubation under 37° C. in a CO2 incubator for 20 hrs. Then 20 μL of the supernatant from each well was incubated with 180 μL Quanti-blue substrate solution at 37° C. for 2 h and the absorbance was read at 620˜655 nm using a spectrophotometer. The signaling pathway that TLR9 activation leads to downstream NE-κB activation has been widely accepted, and therefore similar reporter assay was modified for evaluating TLR9 antagonist.

[1] = Human microsome stability assay; type: in vitro ADME; conditions: 1 μM test compound, 0.5 mg/mL liver microsomal protein, 37° C.
Protocol: Human microsome stability assay
The human microsomal stability assay is used for early assessment of metabolic stability of a test compound in human liver microsomes.
Human liver microsomes (Cat.NO.: 452117, Corning, USA;Cat.NO.:H2610, Xenotech, USA) were preincubated with test compound for 10 minutes at 37° C. in 100 mM potassium phosphate buffer, pH 7.4. The reactions were initiated by adding NADPH regenerating system. The final incubation mixtures contained 1 μM test compound, 0.5 mg/mL liver microsomal protein, 1 mM MgCl2, 1 mM NADP, 1 unit/mL isocitric dehydrogenase and 6 mM isocitric acid in 100 mM potassium phosphate buffer, pH 7.4. After incubation times of 0, 3, 6, 9, 15 and 30 minutes at 37° C., 300 μL of cold acetonitrile (including internal standard) was added to 100 μL incubation mixture to terminate the reaction. Following precipitation and centrifugation, the amount of compound remaining in the samples were determined by LC-MS/MS. Controls of no NADPH regenerating system at zero and 30 minutes were also prepared and analyzed.

| Compound | IC50 (hTLR9) [nM] | Clearance of Human microsome [1] [mL/min/kg] |
| --- | --- | --- |
| Cc1cc(N2CCOC3CN(CC4CN(c5ccc(C#N)c6ncccc56)CC(C)O4)CC32)cc(C)n1 (single isomer, unassigned) [Example 17A] | 154 |  |
| Cc1cc(N2CCOC3CN(CC4CN(c5ccc(C#N)c6ncccc56)CC(C)O4)CC32)cc(C)n1 (single isomer, unassigned) [Example 17B] | < 32 |  |
| Cc1cc(N2CC3(CN(C[C@H]4CN(c5ccc(C#N)c6ncccc56)C[C@@H](C)O4)C3)C2)cc(CO)n1 [Example 1, 5-[(2S,6R)-2-[[2-[2-(hydroxymethyl)-6-methyl-4-pyridyl]-2,6-diazaspiro[3.3]heptan-6-yl]methyl]-6-methyl-morpholin-4-yl]quinoline-8-carbonitrile] | 34 | 6.35 |
| C[C@@H]1CN(c2ccc(C#N)c3ncccc23)C[C@H](CN2CC3(C2)CN(c2ccnc(C4CC4)c2)CCO3)O1 [Example 3, 5-[(2S,6R)-2-[[8-(2-cyclopropyl-4-pyridyl)-5-oxa-2,8-diazaspiro[3.5]nonan-2-yl]methyl]-6-methyl-morpholin-4-yl]quinoline-8-carbonitrile] | 48 |  |
| Cc1cc(N2CCN(C[C@H]3CN(c4ccc(C#N)c5ncccc45)C[C@@H](C)O3)[C@@H](C)C2)cc(CO)n1 [Example 4A] | 148 | 6.15 |
| Cc1cc(N2CCN(C[C@H]3CN(c4ccc(C#N)c5ncccc45)C[C@@H](C)O3)[C@H](C)C2)cc(CO)n1 [Example 4B] | 145 |  |
| Cc1cc(NC2CCN(C[C@H]3CN(c4ccc(C#N)c5ncccc45)C[C@@H](C)O3)CC2)cc(CO)n1 [Example 5] | 32 | 7.47 |
| Cc1cc(NC2CCN(C[C@H]3CN(c4ccc(C#N)c5ncccc45)C[C@@H](C)O3)C2)cc(CO)n1 (some centres unmarked) [Example 6] | 41 | 6.15 |
| Cc1cc(N2CCC23CN(C[C@H]2CN(c4ccc(C#N)c5ncccc45)C[C@@H](C)O2)C3)cc(C)n1 [Example 8] | < 32 |  |
| Cc1cc(N2C[C@H]3CN(C[C@H]4CN(c5ccc(C#N)c6ncccc56)C[C@@H](C)O4)C[C@H]3C2)cc(CO)n1 [Example 10] | < 32 |  |
| Cc1cc(N(C)C2CN(C[C@H]3CN(c4ccc(C#N)c5ncccc45)C[C@@H](C)O3)C2)cc(C)n1 [Example 11] | 40 |  |
| Cc1cc(N2CCC23CN(C[C@H]2CN(c4ccc(C#N)c5ncccc45)C[C@@H](C)O2)C3)cc(CO)n1 [Example 12] | 49 |  |
| Cc1cc(N2CCOC3(CN(C[C@H]4CN(c5ccc(C#N)c6ncccc56)C[C@@H](C)O4)C3)C2)cc(C)n1 [Example 14] | < 32 |  |
| Cc1cc(N2CCC23CN(C[C@H]2CN(c4ccc(C#N)c5ncccc45)C[C@@H](C)O2)C3)ccn1 [Example 15] | 71 |  |
| Cc1cc(N2CCOC3(CN(C[C@H]4CN(c5ccc(C#N)c6ncccc56)C[C@@H](C)O4)C3)C2)ccn1 [Example 16] | 38 |  |
| C[C@@H]1CN(c2ccc(C#N)c3ncccc23)C[C@H](CN2CCN(c3ccnc(N)c3)CC2)O1 [Example 19, 5-[(2S,6R)-2-[[4-(2-amino-4-pyridyl)piperazin-1-yl]methyl]-6-methyl-morpholin-4-yl]quinoline-8-carbonitrile] | 62 |  |

| Compound | IC50 (hTLR9) [nM] | Clearance of Human microsome [1] [mL/min/kg] |
| --- | --- | --- |
| C[C@@H]1CN(c2ccc(C#N)c3ncccc23)C[C@H](CN[C@@H]2CCCN(c3ccnc(N)c3)C2)O1 [Example 21, 5-[(2S,6R)-2-[[[(3R)-1-(2-amino-4-pyridyl)-3-piperidyl]amino]methyl]-6-methyl-morpholin-4-yl]quinoline-8-carbonitrile] | < 32 |  |
| C[C@@H]1CN(c2ccc(C#N)c3ncccc23)C[C@H](CN[C@H]2CCCN(c3ccnc(N)c3)C2)O1 [Example 22] | 34 |  |
| Cc1cc(N2CCC(NC[C@H]3CN(c4ccc(C#N)c5ncccc45)C[C@@H](C)O3)CC2)cc(CO)n1 [Example 23] | < 32 |  |
| Cc1cc(N2CCC[C@@H](NC[C@H]3CN(c4ccc(C#N)c5ncccc45)C[C@@H](C)O3)C2)cc(CO)n1 [Example 24] | < 32 |  |
| Cc1cc(N2CCC[C@H](NC[C@H]3CN(c4ccc(C#N)c5ncccc45)C[C@@H](C)O3)C2)cc(CO)n1 [Example 25] | < 32 |  |
| Cc1cc(N2CC[C@H](NC[C@H]3CN(c4ccc(C#N)c5ncccc45)C[C@@H](C)O3)C2)cc(CO)n1 [Example 29] | 59 |  |
| Cc1cc(N2CC[C@H](F)[C@H](NC[C@H]3CN(c4ccc(C#N)c5ncccc45)C[C@@H](C)O3)C2)cc(CO)n1 [Example 33] | 122 |  |
| Cc1cc(N2CC[C@@H](F)[C@H](NC[C@H]3CN(c4ccc(C#N)c5ncccc45)C[C@@H](C)O3)C2)cc(CO)n1 [Example 34] | 155 |  |
| Cc1cc(N2CCC[C@@H](N(C)C[C@H]3CN(c4ccc(C#N)c5ncccc45)C[C@@H](C)O3)C2)cc(CO)n1 [Example 35] | 34 |  |
| Cc1cc(N2CC(NC[C@H]3CN(c4ccc(C#N)c5ncccc45)C[C@@H](C)O3)CC(F)(F)C2)cc(CO)n1 (some centres unmarked) [Example 36] | 215 |  |
| Cc1cc(N2CCC[C@H](N(C)C[C@H]3CN(c4ccc(C#N)c5ncccc45)C[C@@H](C)O3)C2)cc(CO)n1 [Example 38] | 39 |  |
| CNc1cc(N2CCN(C[C@H]3CN(c4ccc(C#N)c5ncccc45)C[C@@H](C)O3)CC2)cc(C)n1 [Example 42, 5-[(2R,6S)-2-methyl-6-[[4-[2-methyl-6-(methylamino)-4-pyridyl]piperazin-1-yl]methyl]morpholin-4-yl]quinoline-8-carbonitrile] | < 32 |  |
| Cc1cc(C2CCN(C[C@H]3CN(c4ccc(C#N)c5ncccc45)C[C@@H](C)O3)CC2)cc(N)n1 [Example 43, 5-[(2S,6R)-2-[[4-(2-amino-6-methyl-4-pyridyl)-1-piperidyl]methyl]-6-methyl-morpholin-4-yl]quinoline-8-carbonitrile] | 54 |  |
| C[C@@H]1CN(c2ccc(C#N)c3ncccc23)C[C@H](CN2CCN(c3cc(N)nc(CO)c3)CC2)O1 [Example 45, 5-[(2S,6R)-2-[[4-[2-amino-6-(hydroxymethyl)-4-pyridyl]piperazin-1-yl]methyl]-6-methyl-morpholin-4-yl]quinoline-8-carbonitrile] | 91 |  |
| C[C@@H]1CN(c2ccc(C#N)c3ncccc23)C[C@H](CN2CC3(C2)CN(c2ccnc(CO)c2)CCO3)O1 [Example 51] | 35 |  |
